# Source: patent US9745339B2 (GRAFFINITY PHARMACEUTICALS GMBH, priority 2012, dated 2017)
# Experiments:
# Bevacizumab [1] = target: T1, Bevacizumab (Homo sapiens, UniProt P01857); test: Microtiter plate chromatography of resins: binding and elution of Bevacizumab; conditions: for Bevacizumab Bound: fraction of injected protein bound, 0.5 mg/ml IgG in PBS pH 7.3, ligand immobilized on SEPHAROSE 4 FF; for Bevacizumab Yield: mass eluted (glycine pH 2.5) / mass injected
# T1 construct: 0.5 mg/ml IgG in PBS pH 7.3; ligand immobilized on SEPHAR; Bevacizumab Yield; other: mass eluted (glycine pH 2.5) / mass injected; kd (dissociation constant, Langmuir isotherm); other: Bevacizumab 0.05-5 mg/ml in PBS pH 7.3, 25° C., at least 3 h; qm (maximum capacity); other: mg Bevacizumab per ml of resin; Langmuir isotherm; t0; fused on or other part: Humanized anti-VEGF-A VH domain joined N-terminally to the IGHG1 constant region (engineered, no UniProt entry)
# Procedure: (§1) Resins were assessed in packed mode by microtiter plate chromatography. For each column, approximately 30 μl of resin were transferred to a 384-well filter plate and sealed with appropriate top fits. Columns with rProtein A SEPHAROSE 4 FF and MABSORBENT A2P HF were included as controls.
# (§2) Either 3.3 cv of whole IgGs dissolved at 0.5 mg ml^−1 in PBS or undiluted host cell proteins (HCP) were injected onto columns.
# (§3) Unbound protein was washed from columns with 5 cv of PBS prior to elution with 5 cv of glycine buffer at pH 2.5. […] During injection of samples, speed was reduced to 10 g and centrifugation time increased to 5-10 min. Effluent fractions were collected in 384-well plates and concentrations of protein were analyzed by Bradford assay. Protein masses mi, mft and me (see below) were calculated as the product of fraction volume and measured protein concentration.
# (§4) The fraction of bound protein was calculated as the difference between the total mass of protein injected mi and the mass of protein detected in the flowthrough mft, divided by the total mass of protein injected.
# (§5) The yield of protein was calculated as the mass of protein eluted me, divided by the mass of protein injected mi.
# (§6) The selectivity of resins was calculated as the fraction of bound Bevacizumab antibody BAb, divided by the fraction of bound host cell proteins BHCP.
# (§7) The fraction of bound protein and the yield of protein were calculated for each resin based on data for whole IgG-antibodies. In the case of host cell proteins, only the fraction of bound protein is given. Selectivity of resins was calculated from data for Bevacizumab whole IgG and host cell proteins. Due to limited experimental precision, selectivity was truncated for values beyond 10.
# Tocilizumab = test: Microtiter plate chromatography of resins: binding and elution of Tocilizumab; conditions: fraction of injected protein bound; 0.5 mg/ml IgG in PBS pH 7.3
# Procedure: as §1, §2, §3, §4, §5, §7
# Palivizumab = test: Microtiter plate chromatography of resins: binding and elution of Palivizumab; conditions: fraction of injected protein bound; 0.5 mg/ml IgG in PBS pH 7.3
# Procedure: as §1, §2, §3, §4, §5, §7
# Cetuximab = test: Microtiter plate chromatography of resins: binding and elution of Cetuximab; conditions: fraction of injected protein bound; 0.5 mg/ml IgG in PBS pH 7.3
# Procedure: as §1, §2, §3, §4, §5, §7
# [2] = test system: poly-IgG from human serum (h-poly-IgG); test: Microtiter plate chromatography of resins: binding and elution of human poly-IgG; conditions: fraction of injected protein bound; 0.5 mg/ml IgG in PBS pH 7.3
# Procedure: as §1, §2, §3, §4, §5, §7
# host cell proteins (HCP) = test: Microtiter plate chromatography of resins: binding of host cell proteins; design: species or system CHO cell culture; conditions: fraction of injected undiluted host cell proteins bound
# Procedure: Flowthrough from protein A chromatography (referred to as host cell proteins) was derived from the supernatant of antibody-producing CHO cell culture in serum-free medium. Coomassie brilliant blue dye reagent for Bradford assay was purchased from Thermo Scientific (Bonn/Germany).
# as §1, §2, §3, §4, §7
# Bevacizumab [3] = target: T1, Bevacizumab; test: Langmuir isotherms by batch adsorption; type: binding; conditions: for Kd: Bevacizumab 0.05-5 mg/ml in PBS pH 7.3, 25° C., at least 3 h, read-out: kd (dissociation constant, Langmuir isotherm) (converted); for qm (maximum capacity): mg Bevacizumab per ml of resin, Langmuir isotherm
# Procedure: Experiments were performed with Bevacizumab as antibody. Parameters of Langmuir isotherms for purified antibody were determined by batch adsorption experiments in 96-well microtiter plates. In each well, 10 μl of sorbent slurry (50% v/v) were mixed with 100 μl of protein solution. Initial concentrations varied from 0.05-5 mg/ml in phosphate-buffered saline (0.15 M NaCl, 20 mM phosphate buffer, pH 7.3; PBS). Reactions were agitated vigorously at 25° C. for at least 3 h. Afterwards, antibody concentration in the supernatants were measured by Bradford assay. Data was evaluated by direct fitting of the values with the Langmuir isotherm equation (1).
# Parameters of Langmuir isotherms, i.e. dissociation constants Kd and maximum capacities qm, were determined from the measured concentrations in the supernatants. Parameters were estimated by numerical fitting of the model equation derived by Chase (1)
# Bevacizumab [4] = target: T1, Bevacizumab; test: Uptake kinetics by batch adsorption (time-scale of binding); conditions: time after which 80% of equilibrium saturation occurred; 0.75 mg/ml Bevacizumab in PBS, 25° C.
# Procedure: Uptake kinetics was investigated similarly by batch adsorption in 96-well filter plates. Again, 10 μl of sorbent slurry (50% v/v) were mixed with 100 μl of protein solution. […] Reactions were agitated vigorously at 25° C. for up to 80 min. Supernatants were separated rapidly by spinning through filters after 2.5, 5, 10, 20, 40 and 80 minutes and sampled for analysis. Concentrations of the antibody were analyzed by Bradford assay.
# For determination of t0.8, measured concentrations in the supernatant were interpolated by fitting of double-exponentials and values of t0.8 were read out from graphs (2).
# Bevacizumab [5] = test: Microtiter plate chromatography of resins: binding and elution of Bevacizumab; conditions: fraction of bound Bevacizumab divided by fraction of bound HCP; truncated for values beyond 10
# Procedure: as §1, §2, §3, §4, §5, §6, §7
SMILES,Bevacizumab Bound (Bevacizumab [1]) [%],Bevacizumab Yield (Bevacizumab [1]) [%],Tocilizumab Bound (Tocilizumab) [%],Palivizumab Bound (Palivizumab) [%],Cetuximab Bound (Cetuximab) [%],h-poly-IgG Bound [2] [%],HCP Bound (host cell proteins (HCP)) [%],Kd (Bevacizumab [3]) [µM],qm (maximum capacity) (Bevacizumab [3]) [mg/mL],t0.8 (time-scale of binding) (Bevacizumab [4]) [min],Selectivity (Bevacizumab [5])
N[C@@H](CCC(=O)NCCOCCOCCn1cnc2cc(C(=O)Nc3nnc(-c4ccco4)s3)ccc21)C(=O)NCCOCCOCCn1cnc2cc(C(=O)Nc3nnc(-c4ccco4)s3)ccc21 [Ligand L53],100,96,100,100,100,100,11,131,34,11.8,–
"Cn1c(CCCCCN)nc2cc(C(=O)Nc3nnc(-c4ccco4)s3)ccc21 [Ligand L31, 2-(5-Amino-1-pentyl)-1-methylbenzimidazole-5-carboxylic acid N-[5-(2-furyl)-1,3,4-thiadiazol-2-yl]amide]",100,95,100,100,100,100,20,117,45,5.3,–
"Cc1nc2cc(C(=O)Nc3nc(-c4ccncc4)cs3)ccc2n1CCCN [Ligand L51, 1-(3-Amino-1-propyl)-2-methylbenzimidazole-5-carboxylic acid N-[4-(4-pyridyl)thiazol-2-yl] amide]",100,95,98,94,100,97,15,–,34,8.8,–
"NCCCn1cnc2cc(C(=O)Nc3nc4c(s3)CCC4)ccc21 [Ligand L32, 1-(3-Amino-1-propyl)benzimidazole-5-carboxylic acid N-(5,6-dihydro-(4H)-cyclopentathiazol-2-yl) amide]",100,103,100,91,100,91,44,–,–,–,2.3
"NCCCn1cnc2cc(C(=O)Nc3nccs3)ccc21 [Ligand L16, 1-(3-Amino-1-propyl)benzimidazole-5-carboxylic acid N-(thiazol-2-yl) amide]",100,96,100,87,100,88,37,–,–,–,2.7
"NCCCn1cnc2cc(C(=O)Nc3nnc(-c4ccc5c(c4)OCO5)s3)ccc21 [Ligand L09, 1-(3-Amino-1-propyl)benzimidazole-5-carboxylic acid N-[2-(3,4-methylenedioxyphenyl)-1,3,4-thiadiazol-5-yl] amide]",100,97,100,100,100,100,39,–,–,–,2.6
NCCOCCOCCn1cnc2cc(C(=O)Nc3nnc(-c4ccco4)s3)ccc21,100,99,100,100,99,100,4,85.9,37,6.6,–
"NCCCn1cnc2cc(C(=O)Nc3nnc(-c4ccccc4)s3)ccc21 [Ligand L33, 1-(3-Amino-1-propyl)benzimidazole-5-carboxylic acid N-(2-phenyl-1,3,4-thiadiazol-5-yl) amide]",100,105,100,100,100,100,34,–,–,–,2.9
"NCCCNc1ccc(C(=O)Nc2nnc(-c3ccco3)s2)cc1[N+](=O)[O-] [Ligand L18, 4-[(3-Amino-1-propyl)amino]-3-nitrobenzoic acid N-[5-(2-furyl)-1,3,4-thiadiazol-2-yl]amide]",100,102,100,100,100,100,29,–,–,–,3.4
Cc1nc2cc(C(=O)Nc3nnc(-c4ccco4)s3)ccc2n1CCOCCOCCN,100,97,100,100,100,100,0,333,45,8.9,–
"Cc1cc(NC(=O)c2ccc3c(c2)ncn3CCCN)nn1-c1ccccc1 [Ligand L11, 1-(3-Amino-1-propyl)benzimidazole-5-carboxylic acid N-(5-methyl-1-phenylpyrazol-3-yl) amide]",100,99,96,61,98,88,51,–,–,–,2.0
"NCCCn1cnc2cc(C(=O)Nc3nc(-c4ccccc4)ns3)ccc21 [Ligand L22, 1-(3-Amino-1-propyl)benzimidazole-5-carboxylic acid N-(3-phenyl-1,2,4-thiadiazol-5-yl) amide]",100,104,100,100,100,100,30,–,–,–,3.3
NCCOCCOCCn1cnc2cc(C(=O)Nc3nc(-c4ccccn4)cs3)ccc21,100,103,100,98,100,100,13,–,41,9.0,–
Cc1nc2cc(C(=O)Nc3nnc(-c4ccco4)s3)ccc2n1CCOCCOCCNC(=O)CC[C@H](N)C(=O)NCCOCCOCCn1c(C)nc2cc(C(=O)Nc3nnc(-c4ccco4)s3)ccc21 [Ligand L54],100,95,100,100,100,100,4,46.9,35,8.4,–
